The values that follow come from patent US9326515B2, “Fungicidal 3-[(1,3-thiazol-4-ylmethoxyimino)(phenyl)methyl]-2-substituted-1,2,4-oxadiazol-5(2H)-one derivatives” (BAYER INTELLECTUAL PROPERTY GMBH, priority 2011, dated 2016).

The test system of one data set is Plasmopara viticola. Briefly: Example I: in vivo preventive test on Plasmopara viticola (grapevines). The conditions noted are these: 10 ppm of active ingredient, spray on young grapevine plants, inoculated after spray coating dried, evaluated 6 days after inoculation. The method, then: To produce a suitable preparation of active compound, 1 part by weight of active compound is mixed with the stated amounts of solvent and emulsifier, and the concentrate is diluted with water to the desired concentration.
To test for preventive activity, young plants are sprayed with the preparation of active compound at the stated rate of application. After the spray coating has dried on, the plants are inoculated with an aqueous spore suspension of Plasmopara viticola and then remain for 1 day in an incubation cabinet at approximately 20° C. and a relative atmospheric humidity of 100%. The plant is subsequently placed for 4 days in a greenhouse at approximately 21° C. and a relative atmospheric humidity of approximately 90%. The plants are then misted and placed for 1 day in an incubation cabinet.
The test is evaluated 6 days after the inoculation. 0% means an efficacy which corresponds to that of the untreated control, while an efficacy of 100% means that no disease is observed.

For data set [1] the following is noted: pH 2.7.
In a further data set the test system is Phytophthora infestans. It counts as in vivo. The conditions noted are these: 100 ppm of active ingredient, spray on young tomato plants, inoculated one day after treatment, evaluated 7 days after inoculation.
The conditions of data set [2]: pH 2.7. The source holds these as a separate data set.

For orientation: LogP means a log measure of how a compound divides between an organic and an aqueous phase. In the case of `CCCCCCC(=O)Nc1nc(CON=C(c2ccccc2)c2nc(=O)on2C)cs1` [Example 1], the Eff. % with Plasmopara viticola was 90%; in the data set on Phytophthora infestans, 87%. In addition, the LogP in data set [1] stood at 3.55.
The matching figures for `CC(Oc1ccccc1)C(=O)Nc1nc(CON=C(c2ccccc2)c2nc(=O)on2C)cs1` (centres unmarked) [Example 2]: 97%, 97% and 3.15.
For orientation: chromatographic logP means lipophilicity estimated from chromatographic retention. `Cn1oc(=O)nc1/C(=N\OCc1csc(N)n1)c1ccccc1` [Example 4, 3-[(Z)-{[(2-amino-1,3-thiazol-4-yl)methoxy]imino}(phenyl)methyl]-2-methyl-1,2,4-oxadiazol-5(2H)-one]: in data set [2], the chromatographic logP is 1.07.
Take `Cn1oc(=O)nc1C(=NOCc1csc(NC(=O)COc2ccccc2)n1)c1ccccc1` [Example 8]: the Eff. % was 97% in the data set on Plasmopara viticola and 95% with Phytophthora infestans. The compound also came in with a LogP in data set [1] of 2.98.
For the compound `C#CCC(C)OC(=O)Nc1nc(CON=C(c2ccccc2)c2nc(=O)on2C)cs1` (centres unmarked) [Example 10], the figures for the Eff. % in the data set on Plasmopara viticola and in the data set on Phytophthora infestans were 88% and 93%, respectively. The compound further registered a LogP in data set [1] of 2.80.
For `C#CCCOC(=O)Nc1nc(CON=C(c2ccccc2)c2nc(=O)on2C)cs1` [Example 11], in that order: 78%, 70% and 2.56.
The matching figures for `CCCCCC(=O)Nc1nc(CON=C(c2ccccc2)c2nc(=O)on2C)cs1` [Example 12]: 94%, 92% and 3.19.
In the case of `CCCCCCCC(=O)Nc1nc(CON=C(c2ccccc2)c2nc(=O)on2C)cs1` [Example 13], the Eff. % in the data set with Plasmopara viticola worked out at 99%; in the data set with Phytophthora infestans, 95%. Besides, in data set [1], the LogP worked out at 3.94.
For `Cn1oc(=O)nc1C(=NOCc1csc(NC(=O)OCCc2ccccc2)n1)c1ccccc1` [Example 14], in that order: 99%, 95% and 3.35.
In the case of `Cn1oc(=O)nc1C(=NOCc1csc(NC(=O)C2(C)CC2)n1)c1ccccc1` [Example 16], the results for the Eff. % with Plasmopara viticola and in the data set on Phytophthora infestans were 91% and 97%, respectively. Also, the LogP in data set [1] was found to be 2.66.
With `Cn1oc(=O)nc1C(=NOCc1csc(NC(=O)COCc2ccccc2)n1)c1ccccc1` [Example 17], the Eff. % with Plasmopara viticola amounted to 94%; with Phytophthora infestans, 100%. In data set [1], this compound came in with a LogP of 3.06.
For `Cn1oc(=O)nc1C(=NOCc1csc(NC(=O)SC(C)(C)C)n1)c1ccccc1` [Example 18], the Eff. % is 93% in the data set with Plasmopara viticola and 97% with Phytophthora infestans. The same compound displayed a LogP in data set [1] of 3.44.
Regarding `Cn1oc(=O)nc1C(=NOCc1csc(NC(=O)OC(C)(C)C)n1)c1ccccc1` [Example 20], the Eff. % in the data set with Plasmopara viticola is 94%; in the data set with Phytophthora infestans it was 92%. This compound gave a LogP in data set [1] of 3.06.
As for `Cc1cccc2c1OC(C(=O)Nc1nc(CON=C(c3ccccc3)c3nc(=O)on3C)cs1)CO2` (centres unmarked) [Example 25], the Eff. % worked out at 96% in the data set with Plasmopara viticola and 92% in the data set on Phytophthora infestans. The LogP in data set [1] came to 3.42.
`Cn1oc(=O)nc1C(=NOCc1csc(NC(=O)C2CCc3ccccc3C2)n1)c1ccccc1` (centres unmarked) [Example 26]: the values for the Eff. % in the data set with Plasmopara viticola and with Phytophthora infestans were 94% and 92%, respectively. Besides, the LogP in data set [1] amounted to 3.55.
`Cc1ccc(OC(C)C(=O)Nc2nc(CON=C(c3ccccc3)c3nc(=O)on3C)cs2)cc1` (centres unmarked) [Example 27]: the results for the Eff. % in the data set on Plasmopara viticola and in the data set on Phytophthora infestans were 96% and 95%, respectively. In data set [1], this compound registered a LogP of 3.46.
In data set [2], `Cn1oc(=O)nc1/C(=N\OCc1csc(NC(=O)Cc2ccc(Cl)cc2)n1)c1ccccc1` [Example 98, 2-(4-chlorophenyl)-N-{4-[({[(Z)-(2-methyl-5-oxo-2,5-dihydro-1,2,4-oxadiazol-3-yl)(phenyl)methylene]amino}oxy)methyl]-1,3-thiazol-2-yl}acetamide] registered a chromatographic logP of 3.23.
